In ChEMBL document CHEMBL1201862, “PubChem BioAssay data set” (2004):
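Where inhibition never reached the appropriate level, the endpoint shown equals the highest concentration tested. Otherwise, values were interpolated linearly from a five-concentration, 48-hour dose response in 96-well plates. GI50 = concentration required for 50% inhibition of growth.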 Calls of active or inactive are those of the source. Rule as the data show it: active = GI50 up to about 1.1 µM and inactive = higher.

How the values were obtained:
Test in all cases: NCI anticancer screen, dose series, 48 h
NCI/ADR-RES = test system: NCI/ADR-RES
NCI-H23 = test system: NCI-H23
LOX IMVI = test system: LOX IMVI
NCI-H460 = test system: NCI-H460
HCT-116 = test system: HCT-116
TK-10 = test system: TK-10
UACC-257 = test system: UACC-257
IGROV-1 = test system: IGROV-1
M14 = test system: M14
SW-620 = test system: SW-620
MDA-MB-231 = test system: MDA-MB-231
SK-MEL-28 = test system: SK-MEL-28
OVCAR-3 = test system: OVCAR-3
SF-539 = test system: SF-539
UACC-62 = test system: UACC-62
OVCAR-5 = test system: OVCAR-5
A549 = test system: A549
HCC 2998 = test system: HCC 2998
SK-MEL-2 = test system: SK-MEL-2
A498 = test system: A498

Compound | GI50 (NCI/ADR-RES) | GI50 (NCI-H23) | GI50 (LOX IMVI) | GI50 (NCI-H460) | GI50 (HCT-116) | GI50 (TK-10) | GI50 (UACC-257) | GI50 (IGROV-1) | GI50 (M14) | GI50 (SW-620) | GI50 (MDA-MB-231) | GI50 (SK-MEL-28) | GI50 (OVCAR-3) | GI50 (SF-539) | GI50 (UACC-62) | GI50 (OVCAR-5) | GI50 (A549) | GI50 (HCC 2998) | GI50 (SK-MEL-2) | GI50 (A498)
CC(C)(C)C(=O)OCOP(=O)(OCOC(=O)C(C)(C)C)OCC1OC(n2ccc(=O)[nH]c2=O)C(N=[N+]=[N-])C1O (stereo not given) | 7.74 µM (inactive) | 4.45 µM (inactive) | 1.59 µM (inactive) | 3.08 µM (inactive) | 3.22 µM (inactive) | 10.5 µM (inactive) | 5.37 µM (inactive) | 4.23 µM (inactive) | 3 µM (inactive) | 5.79 µM (inactive) | 8.79 µM (inactive) | 11.6 µM (inactive) | 0.4 µM (active) | 2.43 µM (inactive) | 2.88 µM (inactive) | 5.28 µM (inactive) | 2.99 µM (inactive) | 2.75 µM (inactive) |  | 
O=C1OC([C@H](O)c2cccnc2)c2ccccc21 (stereo not given in full) | > 10 µM (inactive) | > 10 µM (inactive) | > 10 µM (inactive) | > 10 µM (inactive) | > 10 µM (inactive) | > 10 µM (inactive) | > 10 µM (inactive) | > 10 µM (inactive) | > 10 µM (inactive) | > 10 µM (inactive) | > 10 µM (inactive) | > 10 µM (inactive) | > 10 µM (inactive) | > 10 µM (inactive) | > 10 µM (inactive) | > 10 µM (inactive) | > 10 µM (inactive) | > 10 µM (inactive) | > 10 µM (inactive) | 
CCOC(=O)CCC(NC(=O)c1ccc(Nc2cnc3cc(C(F)(F)F)ccc3n2)cc1)C(=O)OCC (stereo not given) | > 100 µM (inactive) | 27.7 µM (inactive) | > 100 µM (inactive) | 12.6 µM (inactive) | 17.8 µM (inactive) | > 87.9 µM (inactive) | > 100 µM (inactive) | 42 µM (inactive) | 35.9 µM (inactive) | > 100 µM (inactive) | > 100 µM (inactive) | > 100 µM (inactive) | > 100 µM (inactive) | > 100 µM (inactive) | > 10 µM (inactive) | > 100 µM (inactive) | > 89.3 µM (inactive) | > 30.6 µM (inactive) | > 100 µM (inactive) | 
COc1ccc(-c2nc3ncccn3c2-c2ccc(S(C)(=O)=O)cc2)cc1 | > 100 µM (inactive) | > 100 µM (inactive) | > 100 µM (inactive) | 66.4 µM (inactive) | > 100 µM (inactive) |  | > 100 µM (inactive) | 53.8 µM (inactive) | > 100 µM (inactive) | > 100 µM (inactive) | > 100 µM (inactive) | > 100 µM (inactive) | 75.7 µM (inactive) | > 100 µM (inactive) | 53.6 µM (inactive) | > 100 µM (inactive) | > 100 µM (inactive) |  | > 100 µM (inactive) | 
CCN(CC)CC1CCCCN1CC(=O)N1c2ccc(Br)cc2C(=O)Nc2cccnc21 (stereo not given) |  | > 100 µM (inactive) | > 100 µM (inactive) | > 100 µM (inactive) | > 100 µM (inactive) | > 100 µM (inactive) | 74.8 µM (inactive) | > 100 µM (inactive) | > 100 µM (inactive) |  | > 100 µM (inactive) | > 100 µM (inactive) | > 100 µM (inactive) | > 100 µM (inactive) | > 100 µM (inactive) | > 100 µM (inactive) | > 100 µM (inactive) | > 100 µM (inactive) | > 100 µM (inactive) | > 100 µM (inactive)
CCCCCCOC(=O)C(N)Cc1ccc(OC)cc1 (stereo not given) | > 100 µM (inactive) | > 100 µM (inactive) | > 100 µM (inactive) | > 100 µM (inactive) | > 100 µM (inactive) | > 100 µM (inactive) | > 100 µM (inactive) | > 100 µM (inactive) | > 100 µM (inactive) | > 100 µM (inactive) | > 100 µM (inactive) | > 100 µM (inactive) | > 100 µM (inactive) | > 100 µM (inactive) | > 100 µM (inactive) | > 100 µM (inactive) | > 100 µM (inactive) |  | > 100 µM (inactive) | 
NNC(=O)c1nn[nH]c1SSc1[nH]nnc1C(=O)NN | > 100 µM (inactive) | > 100 µM (inactive) | > 100 µM (inactive) | > 100 µM (inactive) | > 100 µM (inactive) | > 100 µM (inactive) | > 100 µM (inactive) | > 100 µM (inactive) | > 100 µM (inactive) | > 100 µM (inactive) | > 100 µM (inactive) | > 100 µM (inactive) | > 100 µM (inactive) | > 100 µM (inactive) | > 100 µM (inactive) | > 100 µM (inactive) | > 100 µM (inactive) | > 100 µM (inactive) | > 100 µM (inactive) | 
N#C/C(=C\c1ccccc1)c1nc(-c2cc3ccccc3oc2=O)cs1 | > 100 µM (inactive) |  | > 100 µM (inactive) | > 100 µM (inactive) | > 100 µM (inactive) | 45.2 µM (inactive) | > 100 µM (inactive) | 48.5 µM (inactive) | > 100 µM (inactive) | > 100 µM (inactive) | 71.3 µM (inactive) | > 100 µM (inactive) |  | 58.5 µM (inactive) | 43.1 µM (inactive) | > 100 µM (inactive) | > 100 µM (inactive) | > 100 µM (inactive) | > 100 µM (inactive) | 
c1ccc2c(c1)SC1=C(SC(=C3SC4=C(S3)Sc3ccccc3S4)S1)S2 | > 100 µM (inactive) | > 100 µM (inactive) | > 100 µM (inactive) | > 100 µM (inactive) | > 100 µM (inactive) | > 100 µM (inactive) | > 100 µM (inactive) | > 100 µM (inactive) | > 100 µM (inactive) | > 100 µM (inactive) | > 100 µM (inactive) | > 100 µM (inactive) | > 100 µM (inactive) | > 100 µM (inactive) | > 100 µM (inactive) | > 100 µM (inactive) | > 100 µM (inactive) | > 100 µM (inactive) | > 100 µM (inactive) | 
CCCCCCCCCCCCCc1nnn[nH]1 |  | 24.4 µM (inactive) | 18.4 µM (inactive) | 20.6 µM (inactive) | 17.9 µM (inactive) | 20.6 µM (inactive) | 18.7 µM (inactive) | 21.2 µM (inactive) | 17.5 µM (inactive) | 20 µM (inactive) |  | 17.8 µM (inactive) | 18.3 µM (inactive) | 18.2 µM (inactive) | 18 µM (inactive) | 18.5 µM (inactive) | 20 µM (inactive) | 18.6 µM (inactive) | 18.2 µM (inactive) | 17 µM (inactive)
N/N=C(/Cc1nc2ccc(C(=O)c3ccccc3)cc2nc1O)C(=O)Nc1ccc([N+](=O)[O-])cc1[N+](=O)[O-] |  | > 10 µM (inactive) | > 10 µM (inactive) | > 10 µM (inactive) | > 10 µM (inactive) | > 100 µM (inactive) | > 100 µM (inactive) | > 10 µM (inactive) | > 10 µM (inactive) | > 100 µM (inactive) |  | > 10 µM (inactive) | > 10 µM (inactive) | > 100 µM (inactive) | 49 µM (inactive) | > 10 µM (inactive) | > 10 µM (inactive) | > 10 µM (inactive) | > 10 µM (inactive) | > 10 µM (inactive)
CCOC(=O)c1c(-c2ccccc2)nc2c(OC)nccn12 | > 100 µM (inactive) | > 100 µM (inactive) | > 100 µM (inactive) | > 100 µM (inactive) | > 100 µM (inactive) | 60.5 µM (inactive) | > 100 µM (inactive) | > 100 µM (inactive) | > 100 µM (inactive) | > 100 µM (inactive) | > 100 µM (inactive) | > 100 µM (inactive) | > 100 µM (inactive) | > 100 µM (inactive) | > 100 µM (inactive) |  | > 100 µM (inactive) | > 100 µM (inactive) | > 100 µM (inactive) | 
C/C(=N\NC(=O)/C(C#N)=C\c1ccc(N(CCC#N)CCC#N)cc1)c1ccccc1 | > 10 µM (inactive) | > 10 µM (inactive) | > 10 µM (inactive) | > 10 µM (inactive) | > 10 µM (inactive) | > 10 µM (inactive) | > 10 µM (inactive) | > 10 µM (inactive) | > 10 µM (inactive) | > 10 µM (inactive) | > 10 µM (inactive) | > 10 µM (inactive) |  | > 10 µM (inactive) | > 10 µM (inactive) |  | > 10 µM (inactive) | > 10 µM (inactive) |  | 
Cc1cc2ncn(C3CCCCO3)c2cc1C (stereo not given) | > 100 µM (inactive) | 50.2 µM (inactive) | 62.5 µM (inactive) |  | > 100 µM (inactive) | > 100 µM (inactive) | > 100 µM (inactive) | > 100 µM (inactive) | > 100 µM (inactive) | > 100 µM (inactive) | > 100 µM (inactive) | > 100 µM (inactive) | > 100 µM (inactive) | > 100 µM (inactive) | > 100 µM (inactive) | > 100 µM (inactive) | > 100 µM (inactive) | > 100 µM (inactive) | > 100 µM (inactive) | 
CC(=O)O[C@]1(C)CCC2C(C)C(=O)OC2C2C(C)[C@@H](O)CC21 (stereo not given in full) |  | 36.6 µM (inactive) | 17.9 µM (inactive) | 66.5 µM (inactive) | 27.2 µM (inactive) | 42.6 µM (inactive) | > 100 µM (inactive) | 40.7 µM (inactive) | 20.8 µM (inactive) | 15.8 µM (inactive) |  | 34 µM (inactive) | 12.9 µM (inactive) | 39.5 µM (inactive) | 33.9 µM (inactive) | 29.8 µM (inactive) | 52.7 µM (inactive) | 24.6 µM (inactive) | 20.3 µM (inactive) | 19.8 µM (inactive)
